Test results reported in US9790174B2, “Kinase inhibitors” (Respivert Limited, priority 2013, dated 2017).

Columns and labels:
TNBS-induced colitis = TNBS-induced colitis in mice; type: in vivo, BDF1 mice; settings: conducted over 2 days; oral
Experimental: Non-fasted, 10-12 week old, male BDF1 mice are dosed by oral gavage twice daily with either vehicle (5 mL/kg), reference item (Budesonide 2.5 mg/kg) or test compound (1 or 5 mg/kg) one day before (Day −1) stimulation of the inflammatory response by treatment with 2,4,6-trinitrobenzenesulphonic acid (TNBS) (15 mg/mL in 50% ethanol/50% saline). On Day 0 of the study TNBS (200 μL) is administered intra-colonically via a plastic catheter with BID dosing of the vehicle, reference or test compound continuing for 2 or 4 days. During the study, animals are weighed every day and stool observations are made and recorded as a score, based on stool consistency. At the time of sacrifice on Day 2 (or Day 4), the large intestine is removed and the length and weight recorded. Sections of the colon are taken for histopathology scoring to determine disease severity.

[1] = tested on: Salmonella typhimurium, strains TA98 and TA100; experiment: Mutagenicity assessment (bacterial reverse mutation screen); type: cell-based; settings: TA98 and TA100, presence or absence of S-9 mix
Experimental: Studies were conducted by Sequani (Ledbury, Herefordshire, UK) to assess compounds of the invention for their ability to induce mutations in two histidine dependent auxotrophic mutants of Salmonella typhimurium, strains TA98 and TA100 in vitro.
The mutation screen was conducted using the plate incorporation method and was performed in both the presence and absence of S-9 mix (a liver post-mitochondrial fraction derived from the livers of Aroclor 1254 treated rats). The bacteria were exposed to test compounds dissolved in dimethylsulphoxide, which solvent was also used as the negative control. The dose levels used were 0.32, 1.6, 8, 40, 200, 1000 or 5000 μg/plate.

non-mutant kinases = experiment: KinomeScan selectivity scores; type: binding; settings: for number of individual kinase hits S(1): % Ctrl <1; for number of individual kinase hits S(10): % Ctrl <10; for number of individual kinase hits S(35): % Ctrl <35; for selectivity compared to the Reference Compound: evidenced by lower selectivity scores
Experimental: These assays may be conducted by DiscoverX (formerly Ambit; San Diego, Calif.). The percentage inhibition produced by incubation with a test compound may be calculated relative to the non-inhibited control.

[2] = tested on: endotoxin-induced uveitis; experiment: Endotoxin-induced uveitis in rats; type: in vivo, Lewis rats; settings: rats treated with intravitreal endotoxin LPS
Experimental: Male, Lewis rats (6-8 weeks old, Charles River UK Limited) are housed in cages of 3 at 19-21° C. with a 12 h light/dark cycle (07:00/19:00) and fed a standard diet of rodent chow and water ad libitum. Non-fasted rats are weighed, individually identified on the tail with a permanent marker, and receive a single intravitreal administration into the right vitreous humor (5 μL dose volume) of 100 ng/animal of LPS (Escherichia coli 0111:B4 prepared in PBS, Sigma Aldrich, UK) using a 32-gauge needle. Untreated rats are injected with PBS. […] Following euthanasia, the right eye of each animal is enucleated and dissected into front (anterior) and back (posterior) sections around the lens. Each section is weighed and homogenised in 500 μL of sterile phosphate buffered saline followed by 20 minutes centrifugation at 12000 rpm at 4° C.

B-Raf = B-Raf (Homo sapiens (Human), UniProt P15056); experiment: KINOMEscan binding of kinase to standard ligand
Experimental: (§1) Kinase enzyme binding activities of compounds disclosed herein may be determined using a proprietary assay which measures active site-directed competition binding to an immobilized ligand (Fabian, M. A. et al., Nature Biotechnol., 2005, 23:329-336). These assays may be conducted by DiscoverX (formerly Ambit; San Diego, Calif.). The percentage inhibition produced by incubation with a test compound may be calculated relative to the non-inhibited control.

B-Raf (V600E) = B-Raf (V600E) (Homo sapiens (Human), UniProt P15056, V600E); experiment: KINOMEscan binding of kinase to standard ligand
Experimental: as §1

[3] = tested on: adoptive transfer colitis; experiment: Adoptive transfer in mice; type: in vivo, SCID mice
Experimental: On Study day 0, female Balb/C mice are terminated and spleens obtained for CD45RB^high cell isolation (Using SCID IBD cell Separation protocol). Approximately 4×10^5 cells/mL CD45RB^high cells are then injected intraperitoneally (100 μL/mouse) into female SCID animals. On study day 14, mice are weighed and randomized into treatment groups based on body weight. On Day 14, compounds are administered BID, via oral gavage, in a peanut oil vehicle at the dose levels outlined below in Tables 6a and 6b and a dose volume of 5 mL/kg. Treatment continues until study day 42, at which point the animals are necropsied 4 hours after the morning administration. The colon length and weight are recorded and used as a secondary endpoint in the study as a measurement of colon oedema. The colon is then divided into six cross-sections, four of which are used for histopathology scoring (primary endpoint) and two are homogenised for cytokine analysis. Data shown is the % inhibition of the induction window between nave animals and vehicle animals, where higher inhibition implies closer to the non-diseased, nave, phenotype.

[4] = tested on: intestinal mucosa biopsies from ulcerative colitis patients; experiment: Human biopsy assay (cytokine release from intestinal mucosa biopsies); type: cell-based; settings: 1 μg/mL, 24 hours
Experimental: Intestinal mucosa biopsies are obtained from the inflamed regions of the colons of IBD patients. The biopsy material is cut into small pieces (2-3 mm) and placed on steel grids in an organ culture chamber at 37° C. in a 5% CO2/95% O2 atmosphere in serum-free media. DMSO control or test compounds at the desired concentration are added to the tissue and incubated for 24 hr in the organ culture chamber. The supernatant is harvested for determination of IL-6, IL-8, IL-1β and TNFα levels by R&D ELISA.

Chain of B-Raf (V600E) (P15056 whole entry V600E): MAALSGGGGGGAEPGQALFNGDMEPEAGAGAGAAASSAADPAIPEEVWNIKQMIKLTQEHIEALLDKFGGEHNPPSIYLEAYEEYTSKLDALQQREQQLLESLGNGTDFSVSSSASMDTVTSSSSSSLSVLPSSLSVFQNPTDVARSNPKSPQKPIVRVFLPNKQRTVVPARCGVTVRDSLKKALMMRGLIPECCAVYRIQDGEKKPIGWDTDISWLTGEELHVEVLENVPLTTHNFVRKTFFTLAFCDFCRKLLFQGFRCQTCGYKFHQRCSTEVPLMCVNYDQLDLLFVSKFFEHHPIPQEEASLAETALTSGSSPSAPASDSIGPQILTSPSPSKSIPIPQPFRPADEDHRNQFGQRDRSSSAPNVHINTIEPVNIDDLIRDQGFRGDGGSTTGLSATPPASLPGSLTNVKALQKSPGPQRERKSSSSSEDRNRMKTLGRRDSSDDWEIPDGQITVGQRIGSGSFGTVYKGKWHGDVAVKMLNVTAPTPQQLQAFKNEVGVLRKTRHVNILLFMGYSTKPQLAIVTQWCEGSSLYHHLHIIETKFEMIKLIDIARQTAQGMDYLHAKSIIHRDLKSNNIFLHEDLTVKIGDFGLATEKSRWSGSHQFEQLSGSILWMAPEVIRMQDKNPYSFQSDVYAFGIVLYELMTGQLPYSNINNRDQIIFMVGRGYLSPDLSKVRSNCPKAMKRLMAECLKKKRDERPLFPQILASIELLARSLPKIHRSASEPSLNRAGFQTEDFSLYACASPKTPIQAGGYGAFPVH
Chain of B-Raf (P15056 whole entry): as the sequence (P15056 whole entry V600E) above, with E600V counted along it

Compound: COCCOCCOCCOc1cc(Nc2cc(Oc3ccc(NC(=O)Nc4cc(C(C)(C)C)cc(C(N)=O)c4OC)c4ccccc34)ccn2)cc(OC)c1 [Example 34, 5-(tert-Butyl)-2-methoxy-3-(3-(4-((2-((3-methoxy-5-(2-(2-(2-methoxyethoxy)ethoxy)ethoxy)phenyl)amino)pyridin-4-yl)oxy)naphthalen-1-yl)ureido)benzamide]
- activity in TNBS model of colonic inflammation (histopathology analysis) (TNBS-induced colitis): displayed substantial activity

Compound: COc1c(NC(=O)Nc2ccc(Oc3ccnc(Nc4ccccc4)c3)c3ccccc23)cc(C(C)(C)C)cc1C(=O)NC1COC1 [Example 75, 5-(tert-Butyl)-2-methoxy-N-(oxetan-3-yl)-3-(3-(4-((2-(phenylamino)pyridin-4-yl)oxy)-naphthalen-1-yl)ureido)benzamide]
- increases in revertant colonies [1]: no dose-related or statistically significant increases in revertant colonies
- number of individual kinase hits S(1) (non-mutant kinases; 50 nM): 2
- number of individual kinase hits S(10) (non-mutant kinases; 50 nM): 14
- number of individual kinase hits S(35) (non-mutant kinases; 50 nM): 39
- number of individual kinase hits S(1) (non-mutant kinases; 500 nM): 15
- number of individual kinase hits S(10) (non-mutant kinases; 500 nM): 55
- number of individual kinase hits S(35) (non-mutant kinases; 500 nM): 91
- selectivity compared to the Reference Compound (non-mutant kinases): substantially improved selectivities
- cytokine levels in anterior and posterior segments of the eyes [2]: significantly reduced cytokine levels
- activity in TNBS model of colonic inflammation (histopathology analysis) (TNBS-induced colitis): displayed substantial activity
- effect on the binding of B-Raf to its standard ligand (B-Raf): did not have any significant effect
- effect on the binding of B-Raf (V600E) to its standard ligand (B-Raf (V600E)): did not have any significant effect

Compound: COc1cc(Nc2cc(Oc3ccc(NC(=O)Nc4cc(C(C)(C)C)cc(NS(C)(=O)=O)c4OC)c4ccccc34)ccn2)cc(C(=O)NCCN2CCOCC2)c1 [Example 27, 3-((4-((4-(3-(5-(tert-Butyl)-2-methoxy-3-(methylsulfonamido)phenyl)ureido)naphthalen-1-yl)oxy)pyridin-2-yl)amino)-5-methoxy-N-(2-morpholinoethyl)benzamide]
- increases in revertant colonies [1]: no dose-related or statistically significant increases in revertant colonies
- % Inhibition ([3]; 3 mg/kg BID oral gavage, colon weight:length, induction window between naïve and vehicle animals): 99%
- levels of pro-inflammatory cytokines in samples of colon tissue ([3]; adoptive transfer model): significantly reduced levels of pro-inflammatory cytokines
- cytokine (IL-1β, IL-6 and IL-8) release compared to the DMSO control [4]: significantly inhibited
- cytokine levels in anterior and posterior segments of the eyes [2]: significantly reduced cytokine levels
- activity in TNBS model of colonic inflammation (histopathology analysis) (TNBS-induced colitis): displayed substantial activity
- effect on the binding of B-Raf to its standard ligand (B-Raf): did not have any significant effect
- effect on the binding of B-Raf (V600E) to its standard ligand (B-Raf (V600E)): did not have any significant effect

Compound: COc1cc(Nc2cc(Oc3ccc(NC(=O)Nc4cc(C(C)(C)C)cc(NS(C)(=O)=O)c4OC)c4ccccc34)ccn2)cc(C(=O)NCCN2CCN(C)CC2)c1 [Example 79, 3-((4-((4-(3-(5-(tert-Butyl)-2-methoxy-3-(methylsulfonamido)phenyl)ureido)naphthalen-1-yl)oxy)pyridin-2-yl)amino)-5-methoxy-N-(2-(4-methylpiperazin-1-yl)ethyl)benzamide]
- activity in TNBS model of colonic inflammation (histopathology analysis) (TNBS-induced colitis): displayed substantial activity

Compound: COc1cc(Nc2cc(Oc3ccc(NC(=O)Nc4cc(C(C)(C)C)cc(NS(C)(=O)=O)c4OC)c4ccccc34)ccn2)cc(C(=O)NCCCN2CCOCC2)c1 [Example 66, 3-((4-((4-(3-(5-(tert-Butyl)-2-methoxy-3-(methylsulfonamido)phenyl)ureido)naphthalen-1-yl)oxy)pyridin-2-yl)amino)-5-methoxy-N-(3-morpholinopropyl)benzamide]
- cytokine levels in anterior and posterior segments of the eyes [2]: significantly reduced cytokine levels

Compound: COCCOCCOCCNC(=O)c1cc(Nc2cc(Oc3ccc(NC(=O)Nc4cc(C(C)(C)C)cc(NS(C)(=O)=O)c4OC)c4ccccc34)ccn2)cc(OC)c1 [Example 3, 3-((4-((4-(3-(5-(tert-Butyl)-2-methoxy-3-(methylsulfonamido)phenyl)ureido)naphthalen-1-yl)oxy)pyridin-2-yl)amino)-5-methoxy-N-(2-(2-(2-methoxyethoxy)ethoxy)ethyl)benzamide]
- activity in T cell driven model of colonic inflammation (ratios of colon weight to length) ([3]; adoptive transfer): displayed significant activity
- number of individual kinase hits S(1) (non-mutant kinases; 50 nM): 0
- number of individual kinase hits S(10) (non-mutant kinases; 50 nM): 9
- number of individual kinase hits S(35) (non-mutant kinases; 50 nM): 36
- number of individual kinase hits S(1) (non-mutant kinases; 500 nM): 18
- number of individual kinase hits S(10) (non-mutant kinases; 500 nM): 59
- number of individual kinase hits S(35) (non-mutant kinases; 500 nM): 93
- selectivity compared to the Reference Compound (non-mutant kinases): substantially improved selectivities
- activity in TNBS model of colonic inflammation (histopathology analysis) (TNBS-induced colitis): displayed substantial activity
- effect on the binding of B-Raf to its standard ligand (B-Raf): did not have any significant effect
- effect on the binding of B-Raf (V600E) to its standard ligand (B-Raf (V600E)): did not have any significant effect

Compound: CNC(=O)c1cc(C(C)(C)C)cc(NC(=O)Nc2ccc(Oc3ccnc(Nc4cc(OC)cc(OCCOCCOCCOC)c4)c3)c3ccccc23)c1OC [Example 29, 5-(tert-Butyl)-2-methoxy-3-(3-(4-((2-((3-methoxy-5-(2-(2-(2-methoxyethoxy)ethoxy)-ethoxy)phenyl)amino)pyridin-4-yl)oxy)naphthalen-1-yl)ureido)-N-methylbenzamide]
- cytokine levels in anterior and posterior segments of the eyes [2]: significantly reduced cytokine levels
